Literature values in patent publication US20260256792A1, “TREATMENT OF CHRONIC SPONTANEOUS URTICARIA BY ADMINISTERING (R)-2-[3-[4-AMINO-3-(2-FLUORO-4-PHENOXY-PHENYL)PYRAZOLO[3,4-D]PYRIMIDIN-1-YL]PIPERIDINE-1-CARBONYL]-4-METHYL-4-[4-(OXETAN-3-YL)PIPERAZIN-1-YL]PENT-2-ENENITRILE” (priority 2023, published 2026).

Tested on: cardiac repolarization
Conditions: healthy volunteers (N=51), also supratherapeutic doses; cited from earlier work

CC(C)(C=C(C#N)C(=O)N1CCC[C@@H](n2nc(-c3ccc(Oc4ccccc4)cc3F)c3c(N)ncnc32)C1)N1CCN(C2COC2)CC1 [rilzabrutinib, (R)-2-[3-[4-amino-3-(2-fluoro-4-phenoxy-phenyl)pyrazolo[3,4-d]pyrimidin-1-yl]piperidine-1-carbonyl]-4-methyl-4-[4-(oxetan-3-yl)piperazin-1-yl]pent-2-enenitrile]
effects on cardiac repolarization (ECG parameters incl. corrected QT interval): does not exert clinically relevant effects
